System: GLP-1 receptor
Test: Evaluation of agonistic activity on GLP-1 receptor (CRE-luciferase reporter in HEK293 cells)
Assay type: cell-based
Conditions: HEK293 cells stably expressing CRE-luciferase reporter system; cellular level
Text: GLP-1 receptor is a Gs-coupled GPCR. CRE-luciferase reporter system was stably expressed in human embryonic kidney epithelial cell line HEK293 used for evaluation. Therefore, once the receptor was activated, the enhancement of intracellular concentration of the second messenger cAMP through Gs signal pathway would initiate the expression of the luciferase gene in the reporter system. The ability of the test compounds to stimulate and activate GLP-1 receptor was reflected by the detected expression level of the luciferase reporter gene.

“[Cys^21(mPEG5000-MAL)]Exendin-4 [Compound 1]” gave an EC50 of 22.5 nM.

From US9260534B2, “Site-directed PEG-modified exendin-4 analogs and uses thereof” (priority 2010, dated 2016)
